Results taken from patent publication US11213512B2, “Bis-amino acid based compound and use thereof” (THE CURATORS OF THE UNIVERSITY OF MISSOURI, priority 2016, dated 2022).

Key:
[1] = system: Staphylcoccus aureus 1199B; assay: Checkerboard combination with norfloxacin or ethidium bromide; format: cell-based, Staphylococcus aureus; settings: compound at ½ MIC or 2 μM; additive not stated
Protocol: Two different strains of E. coli (Gram-negative) were used. The laboratory strain of E. coli, K-12 (ATCC Accession No. 700926), was used for preliminary MIC determinations. The tetracycline resistant strain of E. coli (Tet^R) was prepared by transforming competent JM109 E. coli (Promega) with the pBR322 plasmid (Carolina Biologicals) using the manufacturers protocol. This plasmid contains two resistance genes: the tetA gene expresses the tetracycline resistance TetA efflux pump (Sapunaric and Levy, Microbiol. 2005, 151, 2315-2322) and the amp^R gene expresses a β-lactamase enzyme (Bolivar, et al; Gene 1977, 2, 95-113) that cleaves the four membered ring of penicillin derivatives. The resulting E. coli, which we designate Tet^R E. coli, is both tetracycline and ampicillin resistant. The TetA efflux pump belongs to the major facilitator superfamily (MFS), spans the cytoplasmic membrane, and transports tetracycline from the cell cytoplasm to the periplasmic space (Thanassi, et al., J. Bacteriol. 1995, 177, 998-1007). This active efflux utilizes the proton gradient as an energy source (Levy, Antimicrob. Agents Chemother. 1992, 36, 695-703). […]
Similar experiments to those described in Example 7 above were conducted, wherein the antimicrobial activity of various compounds was determined against Staphylcoccus aureus 1199B. […]

[2] = Aggregate detection by dynamic light scattering; format: physicochemical; settings: 10.(HCl)2 at concentrations between 10 μM and 1 mM
Source text: Amphiphiles are known to enhance the permeability of bacterial boundary layers (Lambert and Hammond, Biochem. Biophys. Res. Commun. 1973, 54, 796-799; and Hancock, Lancet 1997, 349, 418-422). Amphiphiles are also known to form aggregates in aqueous solution. An effort to detect aggregates of 10 was made by using dynamic light scattering (DLS). Compound 10 was deemed to be the most amphiphilic (bola-amphiphilic) of the structures owing to the estimated maximal spacing of the amino groups (Fuhrhop, et al., J. Am. Chem. Soc. 1993, 115, 1600-1601). Solutions of 10.(HCl)2 at concentrations between 10 μM and 1 mM were prepared and examined by dynamic light scattering methods. At the highest concentration, it appeared that some aggregates formed, but the counts were low and the results were considered inconclusive.

Cl.Cl.N[C@H](Cc1c[nH]c2ccccc12)C(=O)NCCCCCCCCCCCCNC(=O)[C@@H](N)Cc1c[nH]c2ccccc12 [Compound 10, (S)-1-((12-((R)-2-Ammonio-3-(1H-indol-3-yl)propanamido)dodecyl)amino)-3-(1H-indol-3-yl)-1-oxopropan-2-aminium chloride]
activity recovered (fold) [1]: 128 fold | aggregate formation in aqueous solution (DLS) [2]: inconclusive
